According to publication PMC4482694, “Machine Learning Models and Pathway Genome Data Base for Trypanosoma cruzi Drug Discovery” (PLoS Neglected Tropical Diseases, 2015):
Counter-ions that a name gives are not always drawn. Like-named read-outs stand apart in the source and are kept apart here.

Experiments:
T. cruzi CA-I/72 = test: Secondary screening (dose-response assay); format: cell-based, Trypanosoma cruzi
Experimental: (§1) T. cruzi CA-I/72 trypomastigotes were obtained from C2C12 infected-culture supernatants after 4–7 days of infection. Cultures were maintained at 37°C with 5% CO2. […] Compounds were added at 10 mM in 50 nl per well using a Biomek FX (Beckman Coulter) for a final 10 μM concentration in 50 μl total volume, and 2,500 parasites were added in 10 μl per well. The plate was incubated for 72 hours at 37°C with 5% CO2. After the incubation, the plate was fixed with the addition of 50 μl of 8% paraformaldehyde solution, followed by two successive washing steps using PBS. Finally, a staining solution containing 0.5 μg/ml of 4',6-diamidino-2-phenylindole (DAPI) was added to each well of the plate and incubated for at least 4 hours prior to reading. Images were acquired by an IN Cell Analyzer 2000 (GE Healthcare) and analyzed by IN Cell Analyzer Developer 1.6 software. […] Numbers of host cells and intracellular amastigotes were determined based on host cell and parasite nucleus quantification, providing a measure of growth inhibition during the first 72 h of post-infection treatment compared to untreated controls. […] The host cell viability was assessed based on the total number of cells divided by the average number of cells from untreated controls (0.1% DMSO), being <0.5 considered a cytotoxic compound. This assay was performed in duplicate.
The hit selection criteria: >50% activity at 10 μM and >0.5 host cell viability in the primary screening. To determine the potency of the hit compounds, we performed a dose-response assay. EC50 values of compounds were determined applying the same assay used in the primary screening. […] Then, 50 nl of each sample were diluted in 50 μl media (DMEM H-21) and added to the experimental plate followed by incubation at 37°C with 5% CO2 for 72 h.

Host cell cytotoxicity = format: cell-based; details: mouse; C2C12 host cells
Experimental: as §1

[1] = tested on: transgenic T.cruzi Brazil luc strain; test: 4-day mouse model of infection, luciferase readout; format: in vivo, Trypanosoma cruzi; details: for Chagas mouse model (4 days treatment, luciferase): In vivo efficacy at 50 mg/kg bid (IP): Balb/c mice, 50 mg/kg b.i.d. IP, read at day 7 post-infection, benznidazole = 100%, vehicle = 0%
Source text: To assess in vivo efficacy of test compounds, a 4-day mouse model of infection by transgenic T.cruzi Brazil luc strain expressing firefly luciferase was used as previously described. Six-week-old female Balb/c mice (average weight 20g) were obtained from Simonsen Labs (Gilroy, CA). All animal protocols were approved and carried out in accordance with the guidelines established by the Institutional Animal Care and Use Committee from UCSD (Protocol S14187). Mice were housed at a maximum of 5 per cage and kept in a specific-pathogen-free (SPF) room at 20 to 24°C under a 12-h light/12-h dark cycle and provided with sterilized water and chow ad libitum. To infect the mice, trypomastigotes of T. cruzi Brazil luc strain were used. The parasites were harvested from culture supernatant 7 days after the infection of C2C12 myocytes in T.75 culture flasks using DMEM media supplemented with 5% FBS. The harvested parasites were counted and the density was adjusted for 10^6 parasites per milliliter of DMEM media without FBS. For the mouse infection, 100 ul of the parasite solution was injected intraperitoneally (10^5 trypomastigotes) per mouse. Starting on day 3 the infected mice were treated with test compounds at 50 mg/kg administered in 20% Kolliphor, IP, b.i.d., for four consecutive days. Two control groups included untreated mice, which received a vehicle (20% Kolliphor HS 15, a.k.a. Solutol), and the positive control groups, which received 50 mg/kg benznidazole, IP, twice a day (b.i.d). At day 7 post-infection, the luminescent signal from infected mice was read upon injection of D-luciferin. The absolute numbers of measured photons/s/cm^2 were averaged between all five mice in each group. The average photons/s/cm^2 from the group treated with benznidazole was normalized as 100% efficacy and the average photons/s/cm^2 from the group treated with vehicle only was normalized as 0% efficacy. Using a linear correlation, the average photons/s/cm^2 of each compound was normalized in the same efficacy scale as the controls.

[2] = target: T. cruzi Tulahuen genetically modified to express Beta-galactosidase; details: cited from earlier work; for EC50: Broad dataset, read-out: EC50 in the Broad dose response dataset
T. cruzi = tested on: T. cruzi; parameters: method as in PMID 21912715; details: retest of Broad HTS hits in one study; cited from earlier work
[3] = Trypanosoma cruzi, C2C12, 72 h, intracellular T. cruzi in C2C12 cells, 72 h, read-out: EC50
[4] = Trypanosoma cruzi, intracellular T. cruzi in C2C12 cells, 72 h, read-out: EC90
[5] = intracellular T. cruzi in C2C12 cells, 72 h, read-out: EC50

Work on NC(=O)N/N=C/c1ccc([N+](=O)[O-])o1 [SC-0011754, Nitrofural] yielded an EC50 (T. cruzi CA-I/72; [3]) of less than 1 µM, an EC90 (T. cruzi CA-I/72; [4]) of 6.98 µM and an EC50 (T. cruzi CA-I/72; [5]) of 0.775 µM. The CC50 at 72 h (Host cell cytotoxicity) was greater than 10 µM.
For O=C1OCCN1/N=C/c1ccc([N+](=O)[O-])o1 [SC-0011742, Furazolidone], the “Chagas mouse model (4 days treatment, luciferase): In vivo efficacy at 50 mg/kg bid (IP)” value (from here on “Chagas mouse model”) ([1]; listed as Furazolidone, 50 mg/kg) was 100.5% and the “Chagas mouse model” value ([1]; listed as furazolidone, 50 mg/kg) was 100%.
For O=C(NCO)N/N=C/c1ccc([N+](=O)[O-])o1 [hydroxymethylnitrofurazone, Hydroxymethylnitrofurazone], the “Chagas mouse model” value ([1]; 50 mg/kg) was 78.5%.
For COc1ccc2nc3cc(Cl)ccc3c(Nc3cc(CN4CCCC4)c(O)c(CN4CCCC4)c3)c2n1 [SC-0011799, Pyronaridine], the EC50 [2] is given as less than 0.587 µM, the “Chagas mouse model” value [1] is given as 85.2% and the EC90 (T. cruzi CA-I/72; [4]) is given as 0.665 µM. For the same compound, the EC50 (T. cruzi CA-I/72; intracellular T. cruzi in C2C12 cells, 72 h, listed as Pyronaridine, read-out: EC50) was 0.225 µM, the EC50 (T. cruzi CA-I/72; intracellular T. cruzi in C2C12 cells, 72 h, listed as pyronaridine, read-out: EC50) was less than 1 µM and the CC50 at 72 h (Host cell cytotoxicity) was 3 µM.
In the case of COc1ccc2cc1Oc1ccc(cc1)C[C@H]1c3cc(c(OC)cc3CCN1C)Oc1c(OC)c(OC)cc3c1[C@H](C2)N(C)CC3 [SC-0011496, Tetrandrine], the “Result in the larger Broad HTS screening dataset to identify inhibitors of replication” value [2] is given as “inactive”, the “Chagas mouse model” value [1] is given as 43.6% and the “Statistical significance of in vivo efficacy” value ([1]; Student t test vs vehicle at day 7, p≤ 0.05) is given as “does not appear to have statistically significant efficacy in vivo”. It also gave an EC50 (T. cruzi CA-I/72; [3]) of less than 1 µM, an EC90 (T. cruzi CA-I/72; [4]) of 1.57 µM and an EC50 (T. cruzi CA-I/72; [5]) of 0.508 µM. It also gave a CC50 at 72 h (Host cell cytotoxicity) of 1.3 µM.
For COc1ccc(CCN(C)CCCC(C#N)(c2ccc(OC)c(OC)c2)C(C)C)cc1OC (racemic) [SC-0005695, (±)-Verapamil hydrochloride], the EC50 [2] is listed as less than 0.1 µM, the “Chagas mouse model” value [1] is listed as 55.1% and the EC90 (T. cruzi CA-I/72; Trypanosoma cruzi, C2C12, 72 h) is listed as 0.143 µM. The EC50 (T. cruzi CA-I/72; intracellular T. cruzi in C2C12 cells, 72 h, listed as (±)-Verapamil hydrochloride) was 0.0383 µM, the EC50 (T. cruzi CA-I/72; intracellular T. cruzi in C2C12 cells, 72 h, listed as verapamil) was less than 1 µM and the IC50 (T. cruzi) was greater than 50 µM.
For O=C(Cn1ccnc1[N+](=O)[O-])NCc1ccccc1 [Benznidazole], the “Chagas mouse model” value [1] was 100%.
